Results taken from the NIST ThermoML archive (doi:10.1021/je100423n).

Experiments:
[1] = Molar enthalpy of transition or fusion; conditions: Crystal; DSC
[2] = molar heat capacity at constant pressure; conditions: 101.33 kPa, Crystal

Cn1cc[n+](CCCCS(=O)(=O)[O-])c1 [4-(1-methyl-1H-imidazolium-3-yl)butane-1-sulfonate]
Conditions	Molar enthalpy of transition or fusion [kcal/mol]
[1]	6.01

Conditions	Glass transition temperature [°C]	Normal melting temperature [°C]	molar heat capacity at constant pressure [J/K/mol]
Crystal, DTA	–	235.83	–
Glass, Adiabatic calorimetry	30.46	–	–
[2], 80.21 K	–	–	109.32
[2], 82.3 K	–	–	110.19
[2], 84.23 K	–	–	111.45
[2], 86.16 K	–	–	114.23
[2], 88.12 K	–	–	115.88
[2], 90.06 K	–	–	117.56
[2], 92.01 K	–	–	118.29
[2], 93.95 K	–	–	119.31
[2], 95.89 K	–	–	120.93
[2], 97.83 K	–	–	122.2
[2], 99.77 K	–	–	123.74
[2], 102.48 K	–	–	124.48
[2], 105.12 K	–	–	126.89
[2], 107 K	–	–	127.99
[2], 108.91 K	–	–	129.52
[2], 110.85 K	–	–	130.01
[2], 112.81 K	–	–	131.16
[2], 114.75 K	–	–	132.61
[2], 116.67 K	–	–	133.57
[2], 118.61 K	–	–	135.14
[2], 120.58 K	–	–	137.07
[2], 122.53 K	–	–	137.67
[2], 124.46 K	–	–	138.87
[2], 126.38 K	–	–	139.75
[2], 128.32 K	–	–	140.75
[2], 130.3 K	–	–	142.4
[2], 132.25 K	–	–	144.69
[2], 134.2 K	–	–	145.28
[2], 136.13 K	–	–	145.45
[2], 138.04 K	–	–	146.27
[2], 139.98 K	–	–	147.32
[2], 141.94 K	–	–	148.6
[2], 143.9 K	–	–	150.42
[2], 145.84 K	–	–	151.09
[2], 147.76 K	–	–	152.25
[2], 149.67 K	–	–	153.38
[2], 152.19 K	–	–	153.72
[2], 154.71 K	–	–	155.47
[2], 156.63 K	–	–	157
[2], 158.54 K	–	–	158.94
[2], 160.5 K	–	–	159.74
[2], 162.51 K	–	–	160.66
[2], 164.51 K	–	–	162.3
[2], 166.5 K	–	–	163.42
[2], 168.48 K	–	–	163.25
[2], 170.44 K	–	–	164.22
[2], 172.4 K	–	–	166.07
[2], 174.34 K	–	–	169.35
[2], 176.29 K	–	–	169.43
[2], 178.22 K	–	–	169.86
[2], 180.14 K	–	–	172.46
[2], 182.06 K	–	–	172.94
[2], 183.96 K	–	–	173.45
[2], 185.91 K	–	–	174.79
[2], 187.92 K	–	–	176.2
[2], 189.92 K	–	–	177.8
[2], 191.9 K	–	–	179.25
[2], 193.89 K	–	–	180.62
[2], 195.86 K	–	–	181.69
[2], 197.82 K	–	–	183.02
[2], 199.78 K	–	–	184.59
[2], 202.16 K	–	–	186.03
[2], 204.55 K	–	–	188.92
[2], 206.52 K	–	–	189.41
[2], 208.48 K	–	–	190.86
[2], 210.43 K	–	–	192.56
[2], 212.37 K	–	–	193.16
[2], 214.31 K	–	–	194.31
[2], 216.23 K	–	–	195.92
[2], 218.15 K	–	–	196.94
[2], 220.06 K	–	–	198.36
[2], 221.95 K	–	–	199.16
[2], 223.84 K	–	–	200.4
[2], 225.81 K	–	–	201.12
[2], 227.76 K	–	–	203.49
[2], 229.69 K	–	–	205.7
[2], 231.68 K	–	–	206.8
[2], 233.67 K	–	–	207.23
[2], 235.68 K	–	–	210
[2], 237.67 K	–	–	211.8
[2], 239.66 K	–	–	212.72
[2], 242.01 K	–	–	212.87
[2], 244.29 K	–	–	213.82
[2], 246.26 K	–	–	215.02
[2], 248.23 K	–	–	216.05
[2], 250.19 K	–	–	217.52
[2], 252.24 K	–	–	219.72
[2], 254.3 K	–	–	221.07
[2], 256.34 K	–	–	222.28
[2], 258.38 K	–	–	223.16
[2], 260.41 K	–	–	224.41
[2], 262.43 K	–	–	226.87
[2], 264.45 K	–	–	228.3
[2], 266.45 K	–	–	230.63
[2], 268.46 K	–	–	233.04
[2], 270.45 K	–	–	233.66
[2], 272.44 K	–	–	235.64
[2], 274.42 K	–	–	237.81
[2], 276.4 K	–	–	239.51
[2], 278.38 K	–	–	241.25
[2], 280.34 K	–	–	243.42
[2], 282.3 K	–	–	245.29
[2], 284.25 K	–	–	246.94
[2], 286.19 K	–	–	249.67
[2], 288.12 K	–	–	252.87
[2], 290.04 K	–	–	253.95
[2], 291.95 K	–	–	254.73
[2], 293.85 K	–	–	255.69
[2], 295.85 K	–	–	257.59
[2], 297.85 K	–	–	258.49
[2], 299.75 K	–	–	260.96
[2], 301.74 K	–	–	261.24
[2], 303.72 K	–	–	264.66
[2], 305.71 K	–	–	264.36
[2], 307.78 K	–	–	264.22
[2], 309.84 K	–	–	267.13
[2], 311.9 K	–	–	269.55
[2], 313.95 K	–	–	271.31
[2], 315.99 K	–	–	273.57
[2], 318.03 K	–	–	274.9
[2], 320.06 K	–	–	276.18
[2], 322.09 K	–	–	278.14
[2], 324.11 K	–	–	279.41
[2], 326.12 K	–	–	281.91
[2], 328.13 K	–	–	283.31
[2], 330.13 K	–	–	285.02
[2], 332.13 K	–	–	286.68
[2], 334.12 K	–	–	289.14
[2], 336.11 K	–	–	290.13
[2], 338.09 K	–	–	291.64
[2], 340.07 K	–	–	293.16
[2], 342.04 K	–	–	294.72
[2], 344 K	–	–	297.82
[2], 345.96 K	–	–	300.22
[2], 347.92 K	–	–	301.67
[2], 349.87 K	–	–	302.61
[2], 351.81 K	–	–	304.94
[2], 353.75 K	–	–	306.16
[2], 355.69 K	–	–	308.54
[2], 357.62 K	–	–	308.82
[2], 359.54 K	–	–	310.24
[2], 361.47 K	–	–	312.31
[2], 363.48 K	–	–	313.02
[2], 365.48 K	–	–	315.16
[2], 367.47 K	–	–	315.19
[2], 369.54 K	–	–	318.14
[2], 371.62 K	–	–	320.13
[2], 373.68 K	–	–	321.14
[2], 375.73 K	–	–	323.95
[2], 377.79 K	–	–	324.83
[2], 379.83 K	–	–	325.26
[2], 381.87 K	–	–	327.6
[2], 383.9 K	–	–	332.07
[2], 385.94 K	–	–	334
[2], 387.96 K	–	–	335.27
[2], 389.98 K	–	–	335.42
[2], 391.98 K	–	–	337.63
[2], 393.99 K	–	–	338.39
[2], 395.97 K	–	–	341.92
[2], 397.96 K	–	–	344.53
